Laboratory results taken from ChEMBL document CHEMBL4622953, “Synthesis and biological evaluation of thioadatanserin and its dialkylated products as partial 5-HTR1A agonists and 5-HTR2A antagonists for potential use in depression and anxiety disorders” (Bioorg Med Chem Lett, 2020).
Counter-ions that a name gives are not always drawn.

What was measured:
Format in all cases: cell-based
[1] = biological target: 5-hydroxytryptamine receptor 2A (Homo sapiens, UniProt P28223); test: Antagonist activity at recombinant human 5-HT2A expressed in human U2OS cells by pathhunter beta-arrestin assay
Chain of 5-hydroxytryptamine receptor 2A (P28223 whole entry): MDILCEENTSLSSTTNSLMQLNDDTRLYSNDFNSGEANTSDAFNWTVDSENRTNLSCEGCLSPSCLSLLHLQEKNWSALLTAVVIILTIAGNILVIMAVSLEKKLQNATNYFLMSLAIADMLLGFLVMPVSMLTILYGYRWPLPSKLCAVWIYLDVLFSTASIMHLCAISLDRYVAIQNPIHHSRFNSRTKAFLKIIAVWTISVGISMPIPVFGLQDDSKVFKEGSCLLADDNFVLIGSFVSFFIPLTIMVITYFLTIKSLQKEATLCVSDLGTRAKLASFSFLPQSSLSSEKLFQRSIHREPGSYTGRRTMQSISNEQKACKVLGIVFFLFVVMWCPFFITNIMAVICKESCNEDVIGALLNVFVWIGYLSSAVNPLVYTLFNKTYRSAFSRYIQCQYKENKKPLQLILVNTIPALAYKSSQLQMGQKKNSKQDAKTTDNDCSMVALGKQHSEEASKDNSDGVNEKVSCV

[2] = biological target: T1, 5-hydroxytryptamine receptor 1A (Homo sapiens, UniProt P08908); test: Partial agonist activity at recombinant human 5-HT1A expressed in CHO-K1 cells by pathhunter beta-arrestin assay
T1 sequence (P08908 whole entry): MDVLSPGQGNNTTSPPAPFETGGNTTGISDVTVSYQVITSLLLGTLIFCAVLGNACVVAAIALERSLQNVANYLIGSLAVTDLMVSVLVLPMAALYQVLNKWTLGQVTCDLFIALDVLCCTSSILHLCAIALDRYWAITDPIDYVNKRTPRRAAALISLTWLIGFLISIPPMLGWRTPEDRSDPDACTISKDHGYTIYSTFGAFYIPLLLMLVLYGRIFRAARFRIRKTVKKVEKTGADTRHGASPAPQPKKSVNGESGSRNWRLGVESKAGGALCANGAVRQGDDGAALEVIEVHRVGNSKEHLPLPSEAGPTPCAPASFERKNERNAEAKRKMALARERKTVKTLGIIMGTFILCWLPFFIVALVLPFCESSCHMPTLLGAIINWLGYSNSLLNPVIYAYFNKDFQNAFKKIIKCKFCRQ

[3] = biological target: T2, 5-hydroxytryptamine receptor 2C (Homo sapiens, UniProt P28335); test: Antagonist activity at recombinant human 5-HT2C expressed in human U2OS cells by pathhunter beta-arrestin assay
T2 sequence (P28335 whole entry): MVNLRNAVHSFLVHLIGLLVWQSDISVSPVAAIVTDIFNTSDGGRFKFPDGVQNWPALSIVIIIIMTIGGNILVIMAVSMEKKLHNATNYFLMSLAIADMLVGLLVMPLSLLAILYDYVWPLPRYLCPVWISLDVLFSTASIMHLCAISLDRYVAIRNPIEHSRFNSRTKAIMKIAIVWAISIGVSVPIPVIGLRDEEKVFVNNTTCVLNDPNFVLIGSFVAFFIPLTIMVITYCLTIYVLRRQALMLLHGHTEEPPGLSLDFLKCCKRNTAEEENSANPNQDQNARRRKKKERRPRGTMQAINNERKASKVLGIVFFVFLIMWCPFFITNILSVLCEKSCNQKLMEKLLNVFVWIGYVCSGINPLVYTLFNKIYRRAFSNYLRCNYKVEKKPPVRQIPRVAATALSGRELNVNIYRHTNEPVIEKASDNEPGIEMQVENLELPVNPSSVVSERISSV

| SMILES | IC50 [1] | IC50 [3] | EC50 [2] |
| --- | --- | --- | --- |
| CS/C(=N/CC[N+]1(C)CCN(c2ncccn2)CC1)C12CC3CC(CC(C3)C1)C2 | > 10000 nM |  | > 10000 nM |
| S=C(NCCN1CCN(c2ncccn2)CC1)C12CC3CC(CC(C3)C1)C2 | 62.3 nM | > 3330 nM |  |
| O=C(NCCN1CCN(c2ncccn2)CC1)C12CC3CC(CC(C3)C1)C2 [ADATANSERIN HYDROCHLORIDE] | 33.7 nM | 1260 nM | 2.1 nM |

Second part, led by results:

| IC50 [1] | IC50 [3] | SMILES | EC50 [2] |
| --- | --- | --- | --- |
|  | 0.33 nM | Cc1cc2c(cc1Cl)N(C(=O)Nc1ccc(Oc3cccnc3C)nc1)CC2 [SB-242084] |  |
| > 10000 nM |  | c1ccc(CS/C(=N/CC[N+]2(Cc3ccccc3)CCN(c3ncccn3)CC2)C23CC4CC(CC(C4)C2)C3)cc1 |  |
